Measured values reported in US12031152B2, “Nutrient media for the production of slaughter-free meat” (Upside Foods, Inc., priority 2020, dated 2024).

How the values were obtained:
[1] = ADI of trace elements and other components
Excerpt: (§1) Several trace elements are essential to cell metabolism and growth. […] As a novel alternative to formulating trace elements directly, the present disclosure discloses the identification and testing of food-safe complexes that innately contain trace elements.

[2] = cited from earlier work; for Safe Reference Level for Human Dietary Intake: UL: Tolerable Upper Limit
[3] = Safety assessment framework: risk categorization of media components
Protocol: A safety assessment was conducted on each component of a given cell culture media under the procedure outlined below. […] Further overview of the categorical framework for ensuring that culture media components are safe and suitable for their intended use in meat production are outlined below according to their category designation. A list of media components used during meat production along with worst-case exposure estimates and relevant authoritative limits or published toxicological/safety data supporting their use is presented in Table 16. • Category 1: These cell culture media components are food ingredients/additives that are GRAS or permitted by federal regulation without limitation on use. Exemplary compounds in this category include innocuous ingredients such as sugars, pH buffers, water soluble vitamins, and common antioxidants such as tocopherols. • Category 2. These cell culture media components are common dietary nutrients and are anticipated to have GRAS status for food use or be permitted by regulation for addition to food. Examples of such compounds include most of the inorganic salts and macronutrients that are present within the cell culture media. […] In some instances, consideration of established safe levels (e.g., ADI, UL) derived from a relevant authoritative body (e.g., U.S. FDA, EFSA, JECFA, FSANZ, U.S. EPA) may be leveraged to support safety. If comparisons of anticipated dietary intakes relative to an authoritative reference intake value is used, consideration of additive intakes from all dietary sources may be considered. In the absence of an authoritative reference intake value, published NOAELs from animal toxicology studies may be used to evaluate safety using standard scientific procedures for food safety evaluation. A margin of exposure (MoE) of 100-fold or greater between the NOAEL and estimated dietary intakes from food exposures is typically considered adequate to support safety. In situations where the MoE is <100-fold, additional measures for further reduction of the media component may be necessary, or further characterization of intraspecies/interspecies differences in metabolism may be necessary. These situations also require careful consideration of the regulatory status on a case-by-case basis (e.g., premarket approval as a food additive or GRAS evaluation required). • Category 3. […] For Category 3 substances a final consideration in the safety assessment process may involve hazard characterization of the potential for a substance to produce toxic biological effects outside of the endpoints measured in a sub-chronic rat toxicity study. […] Considerations for allergenicity, biological effects in humans (e.g., effects on blood pressure), and synergistic effects with other media components also may be evaluated. […]

[4] = Margin between estimated intake of a 65 kg adult and rat NOAEL; details: 65 kg adult
Protocol: A safety assessment was conducted on each component of a given cell culture media under the procedure outlined below. […] Further overview of the categorical framework for ensuring that culture media components are safe and suitable for their intended use in meat production are outlined below according to their category designation. A list of media components used during meat production along with worst-case exposure estimates and relevant authoritative limits or published toxicological/safety data supporting their use is presented in Table 16. • Category 1: These cell culture media components are food ingredients/additives that are GRAS or permitted by federal regulation without limitation on use. Exemplary compounds in this category include innocuous ingredients such as sugars, pH buffers, water soluble vitamins, and common antioxidants such as tocopherols. • Category 2. These cell culture media components are common dietary nutrients and are anticipated to have GRAS status for food use or be permitted by regulation for addition to food. Examples of such compounds include most of the inorganic salts and macronutrients that are present within the cell culture media. […] In some instances, consideration of established safe levels (e.g., ADI, UL) derived from a relevant authoritative body (e.g., U.S. FDA, EFSA, JECFA, FSANZ, U.S. EPA) may be leveraged to support safety. If comparisons of anticipated dietary intakes relative to an authoritative reference intake value is used, consideration of additive intakes from all dietary sources may be considered. […] For Category 3 substances a final consideration in the safety assessment process may involve hazard characterization of the potential for a substance to produce toxic biological effects outside of the endpoints measured in a sub-chronic rat toxicity study. […] Considerations for allergenicity, biological effects in humans (e.g., effects on blood pressure), and synergistic effects with other media components also may be evaluated. […]

[5] = Maximum (worst-case) dietary exposure estimate per 100 g serving; details: assumes complete transfer of media components to the finished product on a wt/wt basis
Protocol: The average daily intake (ADI) is conventionally determined as a result of a safety factor of 100-fold below the experimentally derived No Observable Adverse Effect Limits (NOAEL) for an appropriate animal species for sub-chronic or acute exposure. […] The ADI is determined in an appropriately sensitive species, usually rodent, and it is reported as mg of substance/kg of animal body weight/24-hour period. Calculating the maximum theoretical concentration of each media compound in the final product is done by assuming 100% incorporation of the compound from the media into the product.
A safety assessment was conducted on each component of a given cell culture media under the procedure outlined below.

Adherent Gallus cells = assay: Cellular response to cis recombinant Gallus FGF-2 vs commercial human recombinant FGF-2; assay type: cell-based; details: growth factor at 10 μg/L and 100 μg/L, five days
Protocol: Adherent Gallus cells were thawed and seeded at a density of 5000 cells/cm^2 in a T25-flask. One medium was prepared according to standard media hydration protocols. Dry powder media was added to DI water in a clean vessel and allowed to stir until all components were dissolved. The pH and osmolality of the medium were adjusted to 7.4 and 300 mOsm/kg respectively. The medium was then filtered using a 0.22 μm PES filtration unit and stored at 4° C. until use. Prior to use, the medium was allowed to come up to room temperature. Cells were seeded in the inner wells of a 96-well cell culture plate. Wells were either seeded with one of two different FGF-2 growth factors, a recombinant Gallus FGF-2 produced as described in Example 5, or a commercially available recombinant human FGF-2, or without any growth factors. Each growth factor was seeded at two different concentrations, 10 μg/L or 100 μg/L. Test conditions were all seeded in triplicate at a density of 5000 cells/cm^2. Cells were incubated at 39° C. in 5% CO2 in a Biotek BioSpa Live Cell Analysis System (BioSpa) for five days. Cells were imaged every 12 hours using the BioSpa. Images were processed using BioTeck Gen5 Data Analysis software. Data was then exported and analyzed using Microsoft Excel and SAS JMP.

cells [6] = assay: Screening of cobalt compounds to replace cobalt chloride; assay type: cell-based; details: replacement of cobalt chloride
Excerpt: Cobalt is an essential cofactor nutrient for many enzymatic pathways that contribute to metabolic and cellular function. Cobalt chloride is a commonly used source of cobalt in culture media. Cobalt chloride is strictly prohibited by the FDA for use in food. In order to find a suitable replacement, many cobalt compounds were screened. Eventually, Vitamin B12 in the form of cyanocobalamin, which contains bioavailable cobalt at its chiral center, was found. […] In some embodiments the method comprises removing cobalt chloride. In some embodiments the method comprises replacing cobalt chloride with cyanocobalamin (Vit B12).

cells [7] = details: FAC 0.5 mg/ml-50 mg/ml, up to 275 hours, vs cells without FAC
Excerpt: as §1

O=C(O)CCCCC1CCSS1 (racemic) [DL-ALPHA-LIPOIC ACID]
ADI [1]: 5.14 mg/kg bw-day

CC(=O)Oc1c(C)c(C)c2c(c1C)CCC(C)(CCCC(C)CCCC(C)CCCC(C)C)O2 (racemic) [DL-ALPHA-TOCOPHEROL ACETATE]
Safe Reference Level for Human Dietary Intake: UL [2]: UL = 1000 mg/d

Cc1c(C)c2c(c(C)c1O)CC[C@@](C)(CCC[C@H](C)CCC[C@H](C)CCCC(C)C)O2 [D-ALPHA-TOCOPHEROL]
Safe Reference Level for Human Dietary Intake: UL [2]: UL = 1000 mg/d

N[C@@H](CCC(=O)[O-])C(=O)O.O.[Na+] [L-GLUTAMIC ACID MONOSODIUM H20]
Risk Assessment Category [3]: 2

O=S(=O)([O-])[O-].[Mg+2] [MAGNESIUM SULFATE (ANHY)]
Safe Reference Level for Human Dietary Intake: UL (in words) ([2]; NS = not specified as no evidence of toxicity from excess intake known): No UL for food

NCCO [MONOETHANOLAMINE]
Intakes below NOAEL ([4]; rat NOAEL): kg adult are 128 fold

Cl.Cl.NCCCCN [PUTRESCINE-2HCl]
ADI [1]: 0.018 mg/kg bw-day

[Cl-].[Rb+] [RUBIDIUM CHLORIDE]
ADI [1]: 0.051 mg/kg bw-day

O.O.[Na+].[Na+].[O]=[Mo](=[O])([O-])[O-] [SODIUM MOLYBDATE-2H2O]
ADI [1]: 1.41 mg/kg bw-day

O=P([O-])([O-])O.[Na+].[Na+] [SODIUM PHOSPHATE DIBASIC-ANHY]
Maximum Estimated Exposure per 100 g serving [5]: 4.3 g
Risk Assessment Category [3]: 1

O.O.O.O.O.O.O=C([O-])CCC(=O)[O-].[Na+].[Na+] [SODIUM SUCCINATE-2Na 6H20]
Intakes below NOAEL ([4]; NOAEL from 2 year rat study): are >1000 fold below

O.O.O.O.O.O.[Cl-].[Cl-].[Sr+2] [STRONTIUM CHLORIDE HEXAHYDRATE]
ADI [1]: 1.87 mg/kg bw-day

O=C(O)CCC(=O)O [SUCCINIC ACID]
Intakes below NOAEL ([4]; NOAEL from 2 year rat study): adult are 257-fold

Cc1cn([C@H]2C[C@H](O)[C@@H](CO)O2)c(=O)[nH]c1=O [THYMIDINE SYNTHETIC, THYMIDINE]
ADI [1]: 83.1 mg/kg bw-day

CCCCCCCC/C=C\CCCCCCCC(=O)OCCOCC(OCCO)C1OCC(OCCO)C1OCCO (stereo not shown) [TWEEN 80]
Safe Reference Level for Human Dietary Intake: ADI ([2]; Acceptable Daily Intake): ADI = 10 mg/kg bw/d

C=C1CC[C@H](O)C/C1=C/C=C1\CCC[C@]2(C)[C@@H]([C@H](C)/C=C/[C@H](C)C(C)C)CC[C@@H]12 [VITAMIN D2 (ERGOCALCIFEROL), ERGOCALCIFEROL]
Safe Reference Level for Human Dietary Intake: UL [2]: UL = 100 ug/d

CALCIUM D-PANTOTHENATE
Risk Assessment Category [3]: 1

FERRIC CITRATE
Risk Assessment Category [3]: 2

commercial human FGF-2: commercially available recombinant human FGF-2 [reference compound]
cellular response (Adherent Gallus cells): equivalent activity
cellular response (Adherent Gallus cells; listed as human recombinant FGF-2): equivalent response

cyanocobalamin [VITAMIN B12 (CYANCOCOBALAMIN)]
supply of cobalt to promote cellular function (cells [6]): sufficiently supplied cobalt

ferric ammonium citrate [FAC]
cell viability over time (cells [7]): maintain high viability over time

B1: cis Gallus FGF-2: recombinant Gallus FGF-2 produced in E. coli as described in Example 5 (protein, UniProt P48800 13-158, looked up)
Fibroblast growth factor 2: PALPDDGGGGAFPPGHFKDPKRLYCKNGGFFLRINPDGRVDGVREKSDPHIKLQLQAEERGVVSIKGVSANRFLAMKEDGRLLALKCATEECFFFERLESNNYNTYRSRKYSDWYVALKRTGQYKPGPKTGPGQKAILFLPMSAKS
cellular response (Adherent Gallus cells): equivalent activity
cellular response (Adherent Gallus cells; listed as cis recombinant Gallus FGF-2): equivalent response
